Measurements published in US20240389885A1, “DAILY FASTING METHANE TO DETECT INTESTINAL METHANOGEN OVERGROWTH AND MONITOR TREATMENT RESPONSE” (Cedars-Sinai Medical Center, priority 2021, published 2024).

Legend:
[1] = test system: subjects with IBS-C and IMO; test: EASE-DO randomized double-blind placebo-controlled trial (NCT03763175); format: in vivo, human; settings: 14-week trial, adult patients with IBS-C and IMO, single daily oral doses vs placebo
Text: To evaluate the accuracy and temporal stability of SMM, and to assess its correlation with stool M. smithii loads, we analyzed data from a randomized double-blind placebo-controlled trial: Efficacy and Safety of Single, Daily Oral Doses of SYN-010 Compared to Placebo in Adult Patients with IBS-C (EASE-DO, NCT03763175).
Trial details: Efficacy and Safety of Single, Daily Oral Doses of SYN-010 Compared to Placebo in Adult Patients with IBS-C (EASE-DO, NCT03763175) was a 14-week single-center randomized double-blind placebo-controlled trial evaluating the effects of lovastatin lactone on subjects with IBS-C and IMO. Subjects were excluded if they were on statins, fibrates, niacin, narcotics, laxatives, tegaserod, lubiprostone, linaclotide, metoclopramide, prucalopride, domperidone, plecanatide, CandiBactin, Atrantil, Allimax/Allimed, antibiotics within 2 months and opioids within 3 months prior to the study. If subjects were on probiotics or fiber supplements, they were asked to not change their dose. […] All subjects enrolled in this study completed a 2-hour breath test at their initial visit and their weekly complete spontaneous bowel movement (CSBM) and spontaneous bowel movement (SBM) were recorded. After recording their baseline CSBM and SBM for 2 weeks, subjects returned to the lab and their SMM and stool samples were collected (FIG. 1). […]

[2] = test system: canine small bowel transit; settings: infusion of CH4, canine; cited from earlier work

SMILES: CC[C@H](C)C(=O)O[C@H]1C[C@@H](C)C=C2C=C[C@H](C)[C@H](CC[C@@H]3C[C@@H](O)CC(=O)O3)[C@H]21 [SYN-010, lovastatin lactone]
- primary endpoint, interim futility analysis [1]: not meeting the primary endpoint

SMILES: C [CH4, methane]
- effect on small bowel transit [2]: slows canine small bowel transit
